Legend:
[1] = system: MIP-1α; experiment: MIP-1α secretion in L363 cells, Luminex; type: cell-based, human; details: L363 culture supernatant after 10 days; compounds at 0.005-50 μM; control 266 μg/mL
Experimental: The inhibitory effect of each compound on MIP-1α secretion was examined using Luminex in L363 cells.
(§1) As a control, compounds untreated L363 cells were seeded in 75 cm^2 flasks and incubated for 10 days at 37° C. and 5% CO2. L363 cells were seeded into 75 cm^2 flasks and pre-cultured for 4 h. After incubation, L363 cells were treated with 0.1 μM M7, 0.05 μM M9, 0.1 μM yk-7, 0.1 μM yk-8-3, 50 μM yk-8-1, 0.1 μM M11, 0.01 μM M12, 0.005 μM M14, 0.005 μM M15, 0.005 μM M16, 1 μM M18, and 1 μM M19 at final concentrations, and incubated for 10 days at 37° C. and 5% CO2. After 10 days of incubation, the culture supernatant was collected and the secretion of MIP-la, a bone destruction-related factor and a growth-promoting factor, was measured by Luminex. The human Magnetic Luminex Assay (R&D) was used for this measurement.

[2] = system: IL-6; experiment: IL-6 secretion in KMS-28BM cells, Luminex; type: cell-based, human; details: KMS-28BM culture supernatant after 10 days; compounds at 0.005-50 μM; control 143 μg/mL
Experimental: The inhibitory effect of each compound on IL-6 secretion was examined using Luminex in KMS-28BM cells.
(§2) As a control, compounds untreated KMS-28BM cells were seeded in 75 cm^2 flasks and incubated for 10 days at 37° C. and 5% CO2. KMS-28BM cells were seeded into 75 cm^2 flasks and pre-cultured for 4 h. After incubation, KMS-28BM cells were treated with […], 0.05 μM M9, 0.1 μM yk-7, 0.1 μM yk-8-3, 50 μM yk-8-1, 0.5 μM M11, […], 0.005 μM M14, 0.005 μM M15, 0.005 μM M16, 0.5 μM M18, and 0.5 μM M19 at final concentrations, and incubated for 10 days at 37° C. and 5% CO2. After 10 days of incubation, the culture supernatant was collected and the secretion of IL-6, a bone destruction-related factor and a growth-promoting factor, was measured by Luminex. The human Magnetic Luminex Assay (R&D) was used for this measurement.

[3] = system: IgG; experiment: IgG secretion in KMS-28BM cells, ELISA; type: cell-based, human; details: KMS-28BM culture supernatant after 10 days; compounds at 0.005-50 μM; control 1326 ng/mL
Experimental: The inhibitory effect of each compound on IgG secretion was examined by enzyme-linked immunosorbent assay (ELISA) using KMS-28BM cells.
as §2, with “and IgG” for “and the”, “secretion” for “secretion of IL-6, a bone destruction-related factor and a growth-promoting factor,”, “by ELISA. This measurement was performed using a” for “by Luminex. The”, “human anti-IgG antibody ELISA kit (Funakoshi).” for “human Magnetic Luminex Assay (R&D) was used for this measurement.”

[4] = system: IgG; experiment: IgG secretion in L363 cells, ELISA; type: cell-based, human; details: L363 culture supernatant after 10 days; compounds at 0.005-50 μM; control 2098 ng/mL
Experimental: The inhibitory effect of each compound on IgG secretion was examined by enzyme-linked immunosorbent assay (ELISA) using L363 cells.
as §1, with “and IgG” for “and the”, “secretion” for “secretion of MIP-la, a bone destruction-related factor and a growth-promoting factor,”, “by ELISA. This measurement was performed using a” for “by Luminex. The”, “human anti-IgG antibody ELISA kit (Funakoshi).” for “human Magnetic Luminex Assay (R&D) was used for this measurement.”

[5] = system: Raji cells; experiment: Tumor growth inhibition in mice transplanted with Raji cells; type: in vivo, NOD/ShiJic-scidJcl mice; details: oral 50 mg/kg daily, day 21, vs control group (P<0.01)
Experimental: Raji cells were transplanted into NOD/ShiJic-scidJcl mice, and the tumor growth inhibitory effect of oral administration of M9 and M14 was examined. As a result, a remarkable tumor growth inhibitory effect was observed.
Raji cells were transplanted into NOD/ShiJic-scidJcl mice, and the mice were orally administered M9 at 50 mg/kg and M14 at 50 mg/kg daily on day 0 when the average tumor volume exceeded 100 mm^3, and the tumor volume was measured on day 21.
The group that was only transplanted with Raji cells is called the control group, the group that was treated with M9 is called the M9-treated group, and the group that was treated with M14 is called the M14-treated group. Each group consisted of 5 animals.
(§3) Referring to the figure, the horizontal axis indicates drug treatment, and the vertical axis indicates tumor volume (percent of the control group).
White bars indicate the control group (labeled “Control”). Black bars indicate the M9 treatment group (labeled “50 mg/kg M9”) and vertical bars indicate the M14 treatment group (labeled “50 mg/kg M14”).

[6] = system: L363 cells; experiment: Tumor growth inhibition in mice transplanted with L363 cells; type: in vivo, NOD/ShiJic-scidJcl mice; details: oral 100 mg/kg daily, day 24, vs control group (P<0.01)
Experimental: L363 cells were transplanted into NOD/ShiJic-scidJcl mice, and the tumor growth inhibitory effect of oral administration of M9 was examined. As a result, a remarkable tumor growth inhibitory effect was observed.
L363 cells were transplanted into NOD/ShiJic-scidJcl mice, and M9 was orally administered to the mice at 100 mg/kg daily on day 0 when the average tumor volume exceeded 100 mm^3, and tumor volume was measured on day 24.
The group that was only implanted with L363 cells is called the target group and the group that was treated with M9 is called the M9-treated group. Each group consisted of 5 animals.
as §3
White bars indicate the control group (labeled “Control”). Black bars indicate the M9 treatment group (labeled “100 mg/kg M9”). Those with significant differences (P<0.01) from the control group are marked with an asterisk (*).

CCCC(=O)OC[C@H]1O[C@@H](c2c(OC(=O)CCC)cc3oc4cc(OC(=O)CCC)c(OC(=O)CCC)cc4c(=O)c3c2OC(=O)CCC)[C@H](OC(=O)CCC)[C@@H](OC(=O)CCC)[C@@H]1OC(=O)CCC [Compound M11, 1,3,2′,3′,4′,6,6′,7-octa-O-butyrylmangiferin]
MIP-1α secretion [1]: 6 µg/mL
IL-6 secretion [2]: 12 µg/mL
IgG secretion [3]: 61 ng/mL
IgG secretion [4]: 44 ng/mL

CCCCC(=O)OC[C@H]1O[C@@H](c2c(OC(=O)CCCC)cc3oc4cc(OC(=O)CCCC)c(OC(=O)CCCC)cc4c(=O)c3c2OC(=O)CCCC)[C@H](OC(=O)CCCC)[C@@H](OC(=O)CCCC)[C@@H]1OC(=O)CCCC [yk-8-1, 1,3,2′,3′,4′,6,6′,7-octa-O-valerylmangiferin]
MIP-1α secretion [1]: 179 µg/mL
IL-6 secretion [2]: 84 µg/mL
IgG secretion [3]: 1117 ng/mL
IgG secretion [4]: 1474 ng/mL

CCCC(=O)OC[C@H]1O[C@@H](c2c(O)cc3oc4cc(O)c(O)cc4c(=O)c3c2O)[C@H](OC(=O)CCC)[C@@H](OC(=O)CCC)[C@@H]1OC(=O)CCC [Compound M14, 2′,3′,4′,6′-tetra-O-butyrylmangiferin]
tumor growth (tumor volume, percent of the control group) [5]: significant inhibition of tumor growth

CCC(=O)OC[C@H]1O[C@@H](c2c(O)cc3oc4cc(O)c(O)cc4c(=O)c3c2O)[C@H](OC(=O)CC)[C@@H](OC(=O)CC)[C@@H]1OC(=O)CC [Compound M9, 2′,3′,4′,6′-tetra-O-propionylmangiferin]
tumor growth (tumor volume, percent of the control group) [6]: significant inhibition of tumor growth
tumor growth (tumor volume, percent of the control group) [5]: significant inhibition of tumor growth

— patent publication US20260200903A1, “PHARMACEUTICAL COMPOSITION FOR AMELIORATING MALIGNANT DISEASES” (KINKI UNIVERSITY, priority 2020, published 2026)
